The test system of assay [1] is C57BL/6 male mice fed high fat diet. As to the kind of experiment: Blood ketone bodies value after 8-week feeding (Test Example 1). The following applies: for Blood ketone bodies value (Mean ± Standard error): 8 weeks. Further details: key to Blood ketone bodies value, Significant difference: *: a significant difference was observed at 1% level of significance relative to group 3. Type of assay: in vivo. The source says:
Eight-week-old C57BL/6 male mice (CLEA Japan, Inc.) were divided at random into groups (each group: four animals) and then used. As a normal diet, solid diet MF (lipid component 5.3%, manufactured by Oriental Yeast Co., Ltd.) was used. As a high-fat diet, solid diet High Fat Diet 32 (lipid component 32.0%, manufactured by CLEA Japan, Inc.) was used. As a sample water, 2.5% by weight of aqueous sucrose solution, 2.25% by weight of aqueous maltitol solution, and 4.5% by weight of aqueous maltitol solution obtained by respectively dissolving, as a test substance, sucrose (manufactured by Wako Pure Chemical Industries, Ltd.) and maltitol (Whole Crystalline Maltitol Ueno 60M, having maltitol purity of 90%, manufactured by Ueno Fine Chemicals Industry, Ltd.) in distilled water were used. Distilled water was used as a negative sample. The sample water was administered by making it available ad libitum and the amount of sample water intake was recorded. The dose of sucrose per day calculated from the concentration of the sample water and the water intake was 3 g per 1 kg of body weight. The dose of maltitol per day calculated in the same manner as above was 2.7 g per 1 kg of body weight in mice receiving 2.25% aqueous maltitol solution, and 4.5 g per 1 kg of body weight in mice receiving 4.5% aqueous maltitol solution. The diet and the sample water (test substance aqueous solution or distilled water) listed in Table 1 were administered to mice in each group, and the animals were fed for 8 weeks. After 8-week test feeding, pentobarbital of 0.5 mg/10 g of body weight was intraperitoneally administered to mice, and blood was collected from the tail vein under deep anesthesia. Further, by using Precision Xceed β-Ketone Measuring Electrode (manufactured by Abbott Japan Co., Ltd.), ketone bodies value in blood, which is an indicator of fat burning in the liver, was measured. A significant difference test by the t-test method was performed on blood AST values, blood ALT values, and blood ketone bodies values were evaluated by performing significant difference tests on these values via t-test.

In assay [2] the test system is NASH mice. The assay can be described thus: F4/80 immunostaining of liver, inflammation area % (Test Example 3). Type of assay: in vivo. The settings on record: for Inflammation area % (F4/80 immunostaining), mean ± standard deviation: 8 weeks of age; for Inflammation area %, Significant difference: Bonferroni, 5% level, tendency at 10% level. The source says: A solid diet CE-2 (lipid 4.6% by weight, manufactured by CLEA Japan, Inc.) was used as a normal diet. A solid diet, High Fat Diet 32 (lipid 32.0% by weight, sucrose 6.75% by weight, manufactured by CLEA Japan, Inc.), was used as a sucrose-containing high fat diet. As a maltitol-containing high-fat diet, a special diet (lipid 32.0% by weight, maltitol 6.08% by weight; manufactured by CLEA Japan, Inc.) obtained by replacing the total amount (6.75% by weight) of sucrose in a solid diet, High Fat Diet 32, with powdered maltitol (Whole Crystalline Maltitol Ueno 60M (purity of maltitol: 90%), manufactured by Ueno Fine Chemicals Industry Ltd.) was used. Sodium hypochlorite (PURELOX-S, manufactured by OYALOX Co., Ltd.) was added to pure water prepared by Elix-UV pure water producing apparatus, to a final concentration of 0.00009%, so that pure water for use in the test was obtained. An aqueous maltitol solution was prepared by dissolving powdered maltitol (Whole Crystalline Maltitol Ueno 60M (purity of maltitol: 90%), manufactured by Ueno Fine Chemicals Industry Ltd.) in pure water to a concentration of 1.8% (weight/volume). The purity of maltitol in the aqueous maltitol solution was 1.62%. Twenty-one female SPF mice (C57BL/6J, produced by CLEA Japan, Inc.) on day 14 of pregnancy were purchased and acclimation was performed. All animals were allowed to make a natural birth and a born male was used to produce a model. In addition, the weaning was at 4 weeks after birth. Streptozotocin (Sigma-Aldrich Japan K.K.) was adjusted to a concentration of 10 mg/mL with a physiological saline solution (manufactured by Otsuka Pharmaceutical Factory, Inc.) and the solution was subcutaneously administered once to the back of 2-day-old male mice at a dose of 20 μL/mouse (200 μg/mouse). Afterwards, the mother animal took care of the baby until weaning. The weaning was on day 28±2 after birth. After the weaning, a normal diet was supplied ad libitum to animals receiving no streptozotocin (normal mice (group S1 and group 1)), and a sucrose-containing high fat diet was supplied ad libitum to animals receiving streptozotocin (NASH mice (group S2, group 2, group 3, and group 4). A normal diet was supplied ad libitum to normal mice (group 1). With respect to NASH mice, a sucrose-containing high fat diet was supplied ad libitum to the sucrose group (group 2), and a maltitol-containing high fat diet was supplied ad libitum to the maltitol-low dose group (group 3) and the maltitol-high dose group (group 4). An aqueous maltitol solution was supplied ad libitum only to the maltitol-high dose group (group 4) of 5 to 8 weeks of age, and pure water was supplied ad libitum to the groups other than group 4 of 5 to 8 weeks of age. Six male animals per group were assigned to groups S1 and S2, reared up to 5 weeks of age, and then necropsied. Eight male animals per group were assigned to groups 1, 2, 3 and 4, reared up to 8 weeks of age, and then necropsied. At scheduled necropsy of the animals of 5 or 8 weeks of age, all individuals were anesthetized with diethyl ether (manufactured by Sigma-Aldrich Japan K.K.) and a needle through which heparin sodium (Novo Heparin Injection 1000, manufactured by Mochida Pharmaceutical Co., Ltd.) had been passed was punctured to the heart to aspirate the whole blood, leading to euthanasia, followed by harvest of the organ. […]

“Also recorded” adds a separate entry of the source.

Take `OC[C@H]1O[C@@](CO)(O[C@H]2O[C@H](CO)[C@@H](O)[C@H](O)[C@H]2O)[C@@H](O)[C@@H]1O` [sucrose, reference compound]: the “Blood ketone bodies value (Mean ± Standard error)” value in assay [1] (Group 3: high fat diet + 2.5% aqueous sucrose solution) came to 0.08 ± 0.03 mmol/L. Also, in assay [2] (Group 2, sucrose group: HFD32 (sucrose 6.75%) + pure water), the “Inflammation area % (F4/80 immunostaining), mean ± standard deviation” value amounted to 3.28 ± 0.95%.

With `OC[C@@H](O)[C@@H](O[C@H]1O[C@H](CO)[C@@H](O)[C@H](O)[C@H]1O)[C@H](O)[C@@H](O)CO` [maltitol], the “Blood ketone bodies value, change in words” value in assay [1] (Group 4 (2.25% aqueous maltitol solution) in comparison with group 3 (sucrose)) is reported as “significant improvement effect”; in assay [1] (Group 5 (4.5% aqueous maltitol solution) relative to group 3 (sucrose)), “increased”. Moreover, the “Blood ketone bodies value, Significant difference” value in assay [1] (Group 4 (2.25% aqueous maltitol solution) relative to group 3 (sucrose), t-test) is reported as “*”. The “Blood ketone bodies value (Mean ± Standard error)” value in assay [1] (Group 4: high fat diet + 2.25% aqueous maltitol solution) is 0.20 ± 0.04 mmol/L; in assay [1] (Group 5: high fat diet + 4.5% aqueous maltitol solution), 0.18 ± 0.05 mmol/L. Further, the “Inflammation area %, Significant difference” value is “No significant difference and No” in assay [2] (Group 3 (low-dose maltitol) vs sucrose group (group 2)); “tendency to be low; also recorded: Tendency to be different” in assay [2] (Group 4 (high-dose maltitol) vs sucrose group (group 2)). Moreover, the “Inflammation area % (F4/80 immunostaining), mean ± standard deviation” value was determined as 3.04 ± 1.55% in assay [2] (Group 3, low-dose maltitol: HFD32-M (maltitol 6.08%) + pure water) and 2.46 ± 0.44% in assay [2] (Group 4, high-dose maltitol: HFD32-M (maltitol 6.08%) + aqueous maltitol solution 1.62%).

The record behind these values is patent US9155752B2, “Liver function-improving agent” (UENO FINE CHEMICALS INDUSTRY, LTD., priority 2012, dated 2015).
